Data published in US11718611B2, “Benzenesulfonylbenazamide compound for inhibiting BCL-2 protein and composition and use thereof” (Shenzhen TargetRx, Inc., priority 2017, dated 2023).

Legend:
[1] = Liver microsomal metabolism experiment (metabolic stability); format: in vitro ADME; settings: pH 7.4; mouse liver microsomes 0.5 mg/mL, compound 1 μM
Procedure: Microsome assay: mouse liver microsomes: 0.5 mg/mL, Xenotech; coenzyme (NADPH/NADH): 1 mM, Sigma Life Science; magnesium chloride: 5 mM, 100 mM phosphate buffer (pH 7.4).
Preparation of stock solutions: Powder of the compounds were accurately weighed and dissolved in DMSO to 5 mM.
Preparation of phosphate buffer (100 mM, pH7.4): A pre-prepared 0.5M potassium dihydrogen phosphate (150 mL) was mixed with 0.5M dibasic potassium phosphate (700 mL). The pH of the mixture was adjusted to 7.4 with 0.5M dibasic potassium phosphate solution. The mixture was diluted 5-fold with ultrapure water before use, and magnesium chloride was added to obtain a phosphate buffer (100 mM) containing 100 mM potassium phosphate, 3.3 mM magnesium chloride, pH 7.4.
A NADPH regeneration system solution (containing 6.5 mM NADP, 16.5 mM G-6-P, 3 U/mL G-6-P D, 3.3 mM magnesium chloride) was prepared and placed on wet ice prior to use.
Preparation of stop solution: an acetonitrile solution containing 50 ng/mL propranolol hydrochloride and 200 ng/mL tolbutamide (internal standard). 25057.5 μL of phosphate buffer (pH 7.4) was taken into a 50 mL centrifuge tube, to which 812.5 μL mouse liver microsomes were added, and mixed to obtain a liver microsome dilution with a protein concentration of 0.625 mg/mL.
Incubation of the samples: The stock solutions of the respective compounds were respectively diluted to 0.25 mM with an aqueous solution containing 70% acetonitrile, and used as a working solution, ready for use. 398 μL of the dilution of human liver microsomes or rat mouse liver microsomes were added to 96-well incubation plates (N=2), respectively, and 2 μL of 0.25 mM working solution was added and mixed.
Metabolic stability assay: 300 μL of pre-chilled stop solution was added to each well of 96-well deep well plates and placed on ice as stop plates. The 96-well incubation plates and NADPH regeneration system were placed in a 37° C. water bath box, shaken at 100 rpm and pre-incubated for 5 min. 80 μL of incubation solution was taken out from each well of the incubation plates and added to the stop plates, mixed, and replenished with 20 μL of NADPH regeneration system solution as a 0-min sample. 80 μL of NADPH regeneration system solution was added to each well of the incubation plates to start the reaction and start counting. […] Separately, 100 μL of the reaction solutions was taken at 10, 30, and 90 min reaction, respectively, added to stop plates, and vortexed for 3 minutes to terminate the reaction. The stop plates were centrifuged at 5000×g at 4° C. for 10 min. 100 μL of the supernatant was added to a 96-well plate to which 100 μL of distilled water was previously added, mixed, and analyzed by LC-MS/MS.
Data analysis: The peak areas of the corresponding compounds and internal standard were detected by LC-MS/MS system, and the ratio of the peak area of the compounds to the internal standard was calculated.

[2] = Pharmacokinetic experiment in rats; format: in vivo, SD rat; settings: male SD rats, i.g., 3 mg/kg; for AUC(0-t) / Cmax / MRT / Tmax: rat, plasma, po
Procedure: Experimental Objective: To investigate the pharmacokinetic behavior of the compounds of the present disclosure after the rats being administered with the test compounds.
Species and strain: SD rat grade: SPF grade
Gender and quantity: male, 6
Experimental procedures: Before blood samples were collected, 20 μL of 2 M sodium fluoride solution (esterase inhibitor) was previously added to an EDTA-K2 anticoagulant tube, dried in an 80° C. oven, and placed in a 4° C. refrigerator.
Rats (male, weighing 187 to 197 g) were randomly divided into 2 groups, and were fasted overnight in the afternoon before the experiment but were allowed to drink water freely. Food was given 4 hours after the administration. Group A was given Venetoclaxr (3 mg/kg), and group B was given example compounds 1 to 7 (3 mg/kg). About 100-200 μL of blood was taken from the orbital vein of rats at 15 min, 30 min, 1, 2, 3, 5, 8 and 10 h after administration, placed in a 0.5 mL Eppendorf tube with EDTA-K2 anticoagulant and mixed immediately. After anticoagulation, the tube was gently inverted 5-6 times as quickly as possible. After the blood was taken, it was placed in an ice box, and then within 30 min, the blood sample was centrifuged for 10 min at 4000 rpm and 4° C. to separate the plasma. Immediately after collection of all plasma, it was stored at −20° C. The concentration of the drug in plasma at each time point was determined after sample collection at all time points.

Structure (SMILES)	half-life at 1 μM [1]	microsomal CLint at 1 μM [1]	Cl—pred [2]	F [2]	AUC(0-t) [2]	Cmax [2]	MRT [2]	Tmax [2]
CC1(C)CCC(CN2CCN(c3ccc(C(=O)NS(=O)(=O)c4ccc(NCC5CCOCC5)c([N+](=O)[O-])c4)c(Oc4cnc5[nH]ccc5c4)c3)CC2)=C(c2ccc(Cl)cc2)C1 [Venetoclax, 4-(4-{[2-(4-chlorophenyl)-4,4-dimethylcyclohex-1-en-1-yl]methyl}piperazin-1-yl)-N-({3-nitro-4-[(tetrahydro-2H-pyran-4-ylmethyl)amino]phenyl}sulfonyl)-2-(1H-pyrrolo[2,3-b]pyridin-5-yloxy)benzamide, reference compound]	1.35 h	17.1 µL/min/mg	54.7 mL/min/kg	3.47%	3060 ng·h/mL	478 ng/mL	5.22 h	3.33 h
[2H]C([2H])(C1=C(c2ccc(Cl)cc2)CC(C)(C)CC1)N1C([2H])([2H])C([2H])([2H])N(c2ccc(C(=O)NS(=O)(=O)c3ccc(NCC4CCOCC4)c([N+](=O)[O-])c3)c(Oc3cnc4[nH]ccc4c3)c2)C([2H])([2H])C1([2H])[2H] (single isomer, unassigned) [Compound T-4, 4-(4-{[2-(4-chlorophenyl)-4,4-dimethylcyclohex-1-en-1-yl]-methyl-d2}piperazin-1-yl-2,2,3,3,5,5,6,6-d8)-N-({3-nitro-4-[(tetrahydro-2H-pyran-4-ylmethyl)amino]phenyl}sulfonyl)-2-(1H-pyrrolo[2,3-b]pyridin-5-yloxy)benzamide]	1.12 h	20.7 µL/min/mg						
[2H]C1([2H])N(CC2=C(c3ccc(Cl)cc3)CC(C)(C)CC2)C([2H])([2H])C([2H])([2H])N(c2ccc(C(=O)NS(=O)(=O)c3ccc(NCC4CCOCC4)c([N+](=O)[O-])c3)c(Oc3cnc4[nH]ccc4c3)c2)C1([2H])[2H] (single isomer, unassigned) [Compound T-5, 4-(4-{[2-(4-chlorophenyl)-4,4-dimethylcyclohex-1-en-1-yl]methyl}piperazin-1-yl-2,2,3,3,5,5,6,6-d8)-N-({3-nitro-4-[(tetrahydro-2H-pyran-4-ylmethyl)amino]phenyl}sulfonyl)-2-(1H-pyrrolo[2,3-b]pyridin-5-yloxy)benzamide]	1.52 h	15.2 µL/min/mg						
[2H]C([2H])(Nc1ccc(S(=O)(=O)NC(=O)c2ccc(N3C([2H])([2H])C([2H])([2H])N(C([2H])([2H])C4=C(c5ccc(Cl)cc5)CC(C)(C)CC4)C([2H])([2H])C3([2H])[2H])cc2Oc2cnc3[nH]ccc3c2)cc1[N+](=O)[O-])C1CCOCC1 (single isomer, unassigned) [Compound T-7, 4-(4-{[2-(4-chlorophenyl)-4,4-dimethylcyclohex-1-en-1-yl]methyl-d2}piperazin-1-yl-2,2,3,3,5,5,6,6-d8)-N-({3-nitro-4-[(tetrahydro-2H-pyran-4-ylmethyl-d2)amino]phenyl}sulfonyl)-2-(1H-pyrrolo[2,3-b]pyridin-5-yloxy)benzamide]	5.11 h	4.5 µL/min/mg						
[2H]C([2H])(Nc1ccc(S(=O)(=O)NC(=O)c2ccc(N3C([2H])([2H])C([2H])([2H])N(CC4=C(c5ccc(Cl)cc5)CC(C)(C)CC4)C([2H])([2H])C3([2H])[2H])cc2Oc2cnc3[nH]ccc3c2)cc1[N+](=O)[O-])C1CCOCC1 (single isomer, unassigned) [Compound T-6, 4-(4-{[2-(4-chlorophenyl)-4,4-dimethylcyclohex-1-en-1-yl]methyl}piperazin-1-yl-2,2,3,3,5,5,6,6-d8)-N-({3-nitro-4-[(tetrahydro-2H-pyran-4-ylmethyl-d2)amino]phenyl}sulfonyl)-2-(1H-pyrrolo[2,3-b]pyridin-5-yloxy)benzamide]	1.3 h	17.8 µL/min/mg						
[2H]C([2H])(C1=C(c2ccc(Cl)cc2)CC(C)(C)CC1)N1CCN(c2ccc(C(=O)NS(=O)(=O)c3ccc(NCC4CCOCC4)c([N+](=O)[O-])c3)c(Oc3cnc4[nH]ccc4c3)c2)CC1 (single isomer, unassigned) [Compound T-1, 4-(4-{[2-(4-chlorophenyl)-4,4-dimethylcyclohex-1-en-1-yl]methyl-d2}piperazin-1-yl)-N-({3-nitro-4-[(tetrahydro-2H-pyran-4-ylmethyl)amino]phenyl}sulfonyl)-2-(1H-pyrrolo[2,3-b]pyridin-5-yloxy)benzamide]	4.07 h	5.7 µL/min/mg						
[2H]C([2H])(Nc1ccc(S(=O)(=O)NC(=O)c2ccc(N3CCN(CC4=C(c5ccc(Cl)cc5)CC(C)(C)CC4)CC3)cc2Oc2cnc3[nH]ccc3c2)cc1[N+](=O)[O-])C1CCOCC1 (single isomer, unassigned) [Compound T-3, 4-(4-{[2-(4-chlorophenyl)-4,4-dimethylcyclohex-1-en-1-yl]methyl}piperazin-1-yl)-N-({3-nitro-4-[(tetrahydro-2H-pyran-4-ylmethyl-d2)amino]phenyl}sulfonyl)-2-(1H-pyrrolo[2,3-b]pyridin-5-yloxy)benzamide]	1.25 h	18.4 µL/min/mg	40.2 mL/min/kg	7.10%	4430 ng·h/mL	680 ng/mL	5.07 h	3.33 h
[2H]C([2H])(Nc1ccc(S(=O)(=O)NC(=O)c2ccc(N3CCN(C([2H])([2H])C4=C(c5ccc(Cl)cc5)CC(C)(C)CC4)CC3)cc2Oc2cnc3[nH]ccc3c2)cc1[N+](=O)[O-])C1CCOCC1 (single isomer, unassigned) [Compound T-2, 4-(4-{[2-(4-chlorophenyl)-4,4-dimethylcyclohex-1-en-1-yl]methyl-d2}piperazin-1-yl)-N-({3-nitro-4-[(tetrahydro-2H-pyran-4-ylmethyl-d2)amino]phenyl}sulfonyl)-2-(1H-pyrrolo[2,3-b]pyridin-5-yloxy)benzamide]	2.38 h	9.7 µL/min/mg						
